Measured values from patent publication US20110065632A1, “PHARMACEUTICAL COMPOSITIONS OF SOMATOSTATIN-DOPAMINE CONJUGATES” (priority 2008, published 2011).
Where two headings read alike, the source gives them in different places. Bridge positions count the residues as written; N and C are the ends. Square brackets hold non-standard residues; d marks the D form. Peptide text beside a SMILES is read from it. * marks the point of attachment. X1 = CCCN1C[C@H](CSCC(=O)*)C[C@@H]2c3cccc4[nH]cc(c34)C[C@H]21; Tyr(3-I) = N[C@@H](Cc1ccc(O)c(I)c1)C(=O)O; Dopa = N[C@@H](Cc1ccc(O)c(O)c1)C(=O)O; Abu = CC[C@H](N)C(=O)O

Columns and labels:
hDA2 = experiment: Dopamine-2 receptor radioligand binding assay; parameters: species or system human; conditions: [3H]spiperone
Experimental: Specificity and selectivity for the dopamine-2 receptor of the dopamine analogues used to synthesize the somatostatin-dopamine chimers may be determined by a radioligand binding assay as follows.
Crude membranes were prepared by homogenization of frozen rat corpus striatum (Zivic Laboratories, Pittsburgh, Pa., USA) in 20 mL of ice-cold 50 mM Tris-HCl with a Brinkman Polytron cell disrupter (setting 6, 15 sec). Buffer was added to obtain a final volume of 40 mL, and the homogenate was centrifuged in a Sorval SS-34 rotor at 39,000 g for 10 minutes at 0-4° C. The resulting supernatant was decanted and discarded. The pellet was rehomogenized in ice-cold buffer, pre-incubated at 37° C. for 10 min, diluted, and centrifuged as before. The final pellet was resuspended in buffer and held on ice for the receptor binding assay.
For assay, aliquots of the washed membrane preparations and test compounds were incubated for 15 minutes (37° C.) with 0.25 nM [^3HI]spiperone (16.5 Ci.mmol, New England Nuclear, Boston, Mass., USA) in 50 mM Tris HCl, 120 mM NaCl, 5 mM KCl, 2 mM CaCl2, 1 mM MgCl2. The final assay volume was 1.0 mL. The incubations were terminated by rapid filtration through GF/B glass fibre filters using a Brandel filtration manifold. Each tube and filter was then washed three times with 5-mL aliquots of ice-cold buffer. Specific binding was defined as the total radioligand bound minus that bound in the presence of 1000 nM (+) butaclamol.
(§1) Using the discussed assays, the inhibition constants (Ki) for the five human somatostatin receptors (hSSTR1-hSSTR5) and the dopamine-2 receptor (hUTII and hDA2) were measured for the exemplified somatostatin-dopamine conjugates, as follows: […]

hsst5 = target: T1, hsst5 (Homo sapiens, UniProt P35346); experiment: Somatostatin receptor radioligand binding assay, hsst5; conditions: CHO-K1 membranes, [125I-Tyr11]SS-14
T1 construct: expressed in transfected cells
T1 sequence (P35346 whole entry): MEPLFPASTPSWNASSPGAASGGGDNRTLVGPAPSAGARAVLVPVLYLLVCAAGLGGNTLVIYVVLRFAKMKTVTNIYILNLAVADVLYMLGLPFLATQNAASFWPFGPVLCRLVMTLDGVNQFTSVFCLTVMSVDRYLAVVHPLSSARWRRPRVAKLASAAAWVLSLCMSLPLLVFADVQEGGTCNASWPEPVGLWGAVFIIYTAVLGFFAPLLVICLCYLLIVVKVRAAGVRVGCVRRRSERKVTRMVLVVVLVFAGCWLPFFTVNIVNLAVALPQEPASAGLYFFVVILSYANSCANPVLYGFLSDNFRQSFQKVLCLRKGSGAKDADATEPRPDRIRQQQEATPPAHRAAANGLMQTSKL
Experimental: (§2) Specificity and selectivity of the somatostatin analogues used to synthesize the somatostatin-dopamine chimers were determined by a radioligand binding assay on CHO-K1 cells stably transfected with each of the SSTR subtypes, as follows. Somatostatin analogs are also described in U.S. Patent Application Publication No. 02210006790. The complete coding sequences of genomic fragments of the SSTR 1 (e.g., Genbank accession No. M81829), SSTR 2 (e.g., Genbank accession No. M81830), SSTR 3 (e.g., Genbank accession No. L07062), and SSTR 4 (e.g., Genbank accession No. AL049651) genes and a cDNA clone for SSTR 5 (e.g., Genbank accession No. D16827) was subcloned into the mammalian expression vector pCMV (Life Technologies, Milano, Italy). Other SSTR sequences are known to the skilled artisan. Clonal cell lines stably expressing SSTR's 1-5 were obtained by transfection into CHO-K1 cells (ATCC, Manassas, Va., USA) using the calcium phosphate co-precipitation method (Davis L, et al., 1994 In: Basic methods in Molecular Biology, 2nd edition, Appleton & Lange, Norwalk, Conn., USA: 611-646). The plasmid pRSV-neo (ATCC) was included as a selectable marker. Clonal cell lines were selected in RPMI 1640 media containing 0.5 mg/mL of G418 (Life Technologies, Milano, Italy), ring cloned, and expanded into culture.
(§3) Membranes for in vitro receptor binding assays were obtained by homogenizing the CHO-K1 cells expressing the SSTR's subtypes in ice-cold 50 mM Tris-HCl and centrifuging twice at 39,000 g (10 min), with an intermediate resuspension in fresh buffer. The final pellets were resuspended in 10 mM Tris-HCl for assay.
(§4) For the SSTR 1, 3, 4, and 5 assays, aliquots of the membrane preparations were incubated 90 minutes at 25° C. with 0.05 nM [^125I-Tyr11]SS-14 in 50 mM HEPES (pH 7.4) containing 10 mg/mL BSA, 5 mM MgCl2, 200 KIU/mL Trasylol, 0.02 mg/mL bacitracin, and 0.02 mg/mL phenylmethylsuphonyl fluoride. The final assay volume was 0.3 mL.
(§5) For the SSTR 2 assay, 0.05 nM [^125I]MK-678 was employed as the radioligand and the incubation time was 90 minutes at 25° C. The incubations were terminated by rapid filtration through GF/C glass microfiber filters (Whatman Co.) (pre-soaked in 0.3% polyethylenimine) using a BRANDEL filtration manifold. Each tube and filter was washed three times with 5 mL aliquots of ice-cold buffer. Specific binding was defined as the total radioligand bound minus that bound in the presence of 1000 nM SS-14 for SSTR 1, 3, 4, and 5, or 1000 nM MK-678 for SSTR2.

hUTII = target: T2, hUTII (Homo sapiens, UniProt Q9UKP6); experiment: hUTII inhibition constant; assay type: binding
T2 sequence (Q9UKP6 1-389): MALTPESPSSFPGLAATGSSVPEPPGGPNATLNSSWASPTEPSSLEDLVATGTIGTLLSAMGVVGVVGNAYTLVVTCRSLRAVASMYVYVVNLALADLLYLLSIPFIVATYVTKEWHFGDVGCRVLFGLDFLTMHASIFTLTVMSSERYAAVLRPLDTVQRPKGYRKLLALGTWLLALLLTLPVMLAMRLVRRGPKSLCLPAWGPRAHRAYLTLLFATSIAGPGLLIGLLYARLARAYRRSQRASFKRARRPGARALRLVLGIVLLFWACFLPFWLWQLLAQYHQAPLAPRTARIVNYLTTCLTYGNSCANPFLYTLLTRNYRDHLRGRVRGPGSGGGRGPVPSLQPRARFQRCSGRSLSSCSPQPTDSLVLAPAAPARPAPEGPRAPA
Experimental: as §1

hsst3 = target: T3, hsst3 (Homo sapiens, UniProt P32745); experiment: Somatostatin receptor radioligand binding assay, hsst3
T3 construct: expressed in transfected cells
T3 sequence (P32745 whole entry): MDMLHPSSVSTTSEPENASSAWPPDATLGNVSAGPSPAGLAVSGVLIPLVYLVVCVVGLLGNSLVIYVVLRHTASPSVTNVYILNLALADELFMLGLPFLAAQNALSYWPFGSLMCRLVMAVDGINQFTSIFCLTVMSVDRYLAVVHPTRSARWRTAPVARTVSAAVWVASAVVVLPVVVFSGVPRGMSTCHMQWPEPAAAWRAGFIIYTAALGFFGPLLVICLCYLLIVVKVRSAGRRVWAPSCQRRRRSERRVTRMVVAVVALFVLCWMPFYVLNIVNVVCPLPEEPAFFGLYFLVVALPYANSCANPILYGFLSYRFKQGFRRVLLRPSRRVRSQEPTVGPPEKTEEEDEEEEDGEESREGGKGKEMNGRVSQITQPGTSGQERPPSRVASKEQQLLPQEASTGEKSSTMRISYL
Experimental: as §2, §3, §4, §5, §1

hsst2 = target: T4, hsst2 (Homo sapiens, UniProt P30874); experiment: Somatostatin receptor radioligand binding assay, hsst2; conditions: CHO-K1 membranes, [125I]MK-678
T4 construct: expressed in transfected cells
T4 sequence (P30874 whole entry): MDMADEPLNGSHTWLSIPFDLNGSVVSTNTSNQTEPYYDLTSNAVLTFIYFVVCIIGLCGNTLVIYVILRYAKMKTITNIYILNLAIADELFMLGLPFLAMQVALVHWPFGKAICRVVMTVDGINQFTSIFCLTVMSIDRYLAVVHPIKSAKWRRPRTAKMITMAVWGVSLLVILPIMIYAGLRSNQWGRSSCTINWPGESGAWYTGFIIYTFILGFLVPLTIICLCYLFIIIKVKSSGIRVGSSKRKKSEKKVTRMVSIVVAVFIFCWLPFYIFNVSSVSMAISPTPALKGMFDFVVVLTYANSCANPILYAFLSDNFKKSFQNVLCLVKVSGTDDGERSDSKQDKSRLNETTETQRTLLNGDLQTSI
Experimental: as §2, §3, §5

[1] = CHO-K1 membranes, [125I-Tyr11]SS-14, read-out: hsst3 Ki

Row | SMILES | Ki (hDA2) | Ki (hsst5; read-out: hsst5 Ki) | Ki (hUTII; read-out: hUTII Ki) | Ki (hsst3; [1]) | Ki (hsst2; read-out: hsst2 Ki) | Ki (hUTII; hUTII Ki) | Ki (hsst5; hsst5 Ki) | Ki (hsst3) | Ki (hsst2; hsst2 Ki)
1 | CCCN1C[C@H](CSCC(=O)NCCCC[C@@H](NC(=O)CSC[C@@H]2C[C@@H]3c4cccc5[nH]cc(c45)C[C@H]3N(CCC)C2)C(=O)N[C@H](Cc2ccccc2)C(=O)N[C@H]2CSSC[C@@H](C(=O)N[C@H](C(N)=O)[C@@H](C)O)NC(=O)[C@H]([C@@H](C)O)NC(=O)[C@H](CCCCN)NC(=O)[C@@H](Cc3c[nH]c4ccccc34)NC(=O)[C@H](Cc3ccc(O)c(I)c3)NC2=O)C[C@@H]2c3cccc4[nH]cc(c34)C[C@H]21 [Example 15] | 18.3 nM | 6.29 nM | – | – | – | – | – | – | –
2 | CCCN1C[C@H](CSCC(=O)NCCCC[C@@H](NC(=O)CSC[C@@H]2C[C@@H]3c4cccc5[nH]cc(c45)C[C@H]3N(CCC)C2)C(=O)N[C@H](Cc2ccc(O)cc2)C(=O)N[C@H](Cc2ccc(O)cc2)C(=O)N[C@H]2CSSC[C@@H](C(=O)N[C@H](C(N)=O)[C@@H](C)O)NC(=O)[C@H]([C@@H](C)O)NC(=O)[C@H](CCCCN)NC(=O)[C@@H](Cc3c[nH]c4ccccc34)NC(=O)[C@H](Cc3ccc(O)c(I)c3)NC2=O)C[C@@H]2c3cccc4[nH]cc(c34)C[C@H]21 [Example 16] (X1-[dK](X1)[dY][dY]C[Tyr(3-I)][dW]KTCT-NH2; disulfide 4-9) | 8.56 nM | 7.43 nM | 549 nM | 76.4 nM | 0.16 nM | – | – | – | –
3 | CCCN1C[C@H](CSCC(=O)NCCCC[C@H](NC(=O)CSC[C@@H]2C[C@@H]3c4cccc5[nH]cc(c45)C[C@H]3N(CCC)C2)C(=O)N[C@H](Cc2ccccc2)C(=O)N[C@H]2CSSC[C@@H](C(=O)N[C@H](C(N)=O)[C@@H](C)O)NC(=O)[C@H](CC)NC(=O)[C@H](CCCCN)NC(=O)[C@@H](Cc3c[nH]c4ccccc34)NC(=O)[C@H](Cc3ccc(O)cc3)NC2=O)C[C@@H]2c3cccc4[nH]cc(c34)C[C@H]21 [Example 17] | 17.6 nM | 54 nM | 496 nM | 106 nM | 0.18 nM | – | – | – | –
4 | CC[C@@H]1NC(=O)[C@H](CCCCN)NC(=O)[C@@H](Cc2c[nH]c3ccccc23)NC(=O)[C@H](Cc2ccc(O)cc2)NC(=O)[C@@H](NC(=O)[C@@H](Cc2ccccc2)NC(=O)[C@H](CCCCNC(=O)[C@@H](N)Cc2ccc(O)c(O)c2)NC(=O)[C@@H](N)Cc2ccc(O)c(O)c2)CSSC[C@@H](C(=O)N[C@H](C(N)=O)[C@@H](C)O)NC1=O [Example 18] (H-[Dopa]K(Dopa)[dF]CY[dW]K[Abu]CT-NH2; disulfide 4-9) | 3000 nM | 32 nM | 1000 nM | 167 nM | 0.36 nM | – | – | – | –
5 | CC[C@@H]1NC(=O)[C@H](CCCCN)NC(=O)[C@@H](Cc2c[nH]c3ccccc23)NC(=O)[C@H](Cc2ccc(O)cc2)NC(=O)[C@@H](NC(=O)[C@@H](Cc2ccccc2)NC(=O)[C@@H](N)Cc2ccc(O)c(O)c2)CSSC[C@@H](C(=O)N[C@H](C(N)=O)[C@@H](C)O)NC1=O [Example 19] | 3000 nM | 19.7 nM | 2250 nM | 146 nM | 0.41 nM | – | – | – | –
6 | CC[C@@H]1NC(=O)[C@H](CCCCN)NC(=O)[C@@H](Cc2c[nH]c3ccccc23)NC(=O)[C@H](Cc2ccc(O)cc2)NC(=O)[C@@H](NC(=O)[C@@H](Cc2ccccc2)NC(=O)CN(C)C(=O)N[C@H]2C[C@@H]3c4cccc5[nH]cc(c45)C[C@H]3N(C)C2)CSSC[C@@H](C(=O)N[C@H](C(N)=O)[C@@H](C)O)NC1=O [Example 20] | 95.2 nM | – | – | – | – | – | – | – | –
7 | CC[C@@H]1NC(=O)[C@H](CCCCN)NC(=O)[C@@H](Cc2c[nH]c3ccccc23)NC(=O)[C@H](Cc2ccc(O)cc2)NC(=O)[C@@H](NC(=O)[C@@H](Cc2ccccc2)NC(=O)CN(C)C(=O)N[C@H]2C[C@@H]3c4cccc5[nH]cc(c45)C[C@H]3N(C)C2)CSSC[C@@H](C(=O)N[C@H](C(N)=O)[C@@H](C)O)NC1=O [Example 27] | – | – | – | – | – | 1280 nM | 22.8 nM | 140 nM | 0.02 nM
8 | CCCN1C[C@H](CNC(=O)CCCC(=O)N[C@H](Cc2ccccc2)C(=O)N[C@H]2CSSC[C@@H](C(=O)N[C@H](C(N)=O)[C@@H](C)O)NC(=O)[C@H](CC)NC(=O)[C@H](CCCCN)NC(=O)[C@@H](Cc3c[nH]c4ccccc34)NC(=O)[C@H](Cc3ccc(O)cc3)NC2=O)C[C@@H]2c3cccc4[nH]cc(c34)C[C@H]21 [Example 29] | 226 nM | – | – | – | 0.14 nM | – | – | – | –
9 | CCCN1C[C@H](CSCC(=O)NCCN2CCN(CC(=O)NCCN3CCN(CC(=O)N[C@H](Cc4ccccc4)C(=O)N[C@H]4CSSC[C@@H](C(=O)N[C@H](C(N)=O)[C@@H](C)O)NC(=O)[C@H](C(C)C)NC(=O)[C@H](CCCCN)NC(=O)[C@@H](Cc5c[nH]c6ccccc56)NC(=O)[C@H](Cc5ccc(O)c(I)c5)NC4=O)CC3)CC2)C[C@@H]2c3cccc4[nH]cc(c34)C[C@H]21 [Example 37] | 126 nM | – | 421 nM | 374 nM | 1.26 nM | – | – | – | –
10 | CC(C)[C@@H]1NC(=O)[C@H](CCCCN)NC(=O)[C@@H](Cc2c[nH]c3ccccc23)NC(=O)[C@H](Cc2ccc(O)c(I)c2)NC(=O)[C@@H](NC(=O)[C@@H](Cc2ccccc2)NC(=O)CN2CCN(CCNC(=O)CN3CCN(CCNC(=O)CSC[C@@H]4C[C@@H]5c6cccc7[nH]cc(c67)C[C@H]5N(C)C4)CC3)CC2)CSSC[C@@H](C(=O)N[C@H](C(N)=O)[C@@H](C)O)NC1=O [Example 39] | 310 nM | – | 241 nM | – | 0.42 nM | – | – | 136 nM | –
11 | CC(C)[C@@H]1NC(=O)[C@H](CCCCN)NC(=O)[C@@H](Cc2c[nH]c3ccccc23)NC(=O)[C@H](Cc2ccc(O)c(I)c2)NC(=O)[C@@H](NC(=O)[C@@H](Cc2ccccc2)NC(=O)COCCOCCNC(=O)CSC[C@@H]2C[C@@H]3c4cccc5[nH]cc(c45)C[C@H]3N(C)C2)CSSC[C@@H](C(=O)N[C@H](C(N)=O)[C@@H](C)O)NC1=O [Example 41] | 217 nM | – | – | – | – | – | – | – | –
